Test results as given in patent US9186361B2, “Compounds and compositions for the treatment of parasitic diseases” (Novartis AG, priority 2013, dated 2015).

Key:
Type in all cases: cell-based
[1] = system: L. donovani HU3 strain in mouse peritoneal macrophages; experiment: Proliferation of L. donovani in mouse peritoneal macrophages (SybrGreen, high-content imaging); settings: Leishmania donovani, Peritoneal macrophage, 120 h; infected mouse peritoneal macrophages, 5 days; read-out: L. donavani Macrophage EC50
In short: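 Peritoneal macrophages from uninfected BALB/c mice were infected for 24 h with spleen-derived amastigotes (9-11 week infected mice), then exposed to compound for 5 days at 37° C. Fixed cells stained with SybrGreen and parasite nuclei counted by high-content imaging; EC50 calculated from inhibition.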

[2] = system: Leishmania donovani axenic amastigote parasites; experiment: Assay for Leishmania proliferation in vitro (axenic amastigotes, Cell TiterGlo); settings: 48 h, 2 day incubation, read-out: L. donovani amastigotes EC50
In short: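 L. donovani axenic amastigotes (9600 per well) are cultured with compound for 2 days at 37° C, 5% CO2 in RPMI-based medium at pH 5.5. Viability is read by CellTiterGlo luminescence, and EC50 is calculated.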

[3] = system: Trypanosoma cruzi amastigotes cultured in 3T3 fibroblast cells; experiment: Assay for proliferation of kinetoplastid parasite Trypanosoma cruzi (beta-galactosidase/CPRG readout); settings: NIH3T3, 144 h, Tulahuen strain in 3T3 cells, 6 day incubation, read-out: T cruzi EC50
Source text: Compounds of the invention can be assayed to measure their capacity to inhibit proliferation of kinetoplastid parasite Trypanosoma cruzi. The screening procedure is for identifying compounds with inhibitor activity against Trypanosoma cruzi amastigotes cultured in 3T3 fibroblast cells. The assay is done using the mammalian stage (amastigotes) of T. cruzi that replicates in the intracellular space of host cells. The host cells are initially infected with the culture-derived trypomastigotes that rapidly invade and then divide as amastigotes. The protocol uses the Tulahuen strain of T. cruzi that has been engineered to express the E. coli beta-galactosidase gene (Lac-Z) (Antimicr. Agents Chemoth. 40:2592, 1996). This allows for a colorimetric readout by using the substrate CPRG and an absorbance plate reader.
3T3 fibroblast cells are re-suspended in RPMI-1640 medium without phenol red medium supplemented with 10% FBS (heat inactivated), 100 μg/ml penicillin, and 100 μg/ml streptomycin. Forty μL of suspension (1,000 cells) is dispensed into 384-well plates and incubated overnight at 37° C. temperature and in atmosphere containing 5% CO2. The following day, 100 nL of compounds of the invention in DMSO are added to plate wells containing 3T3 cells. At the same time control compounds (benznidazole and nifurtimox) and DMSO are added to plates to serve as the positive and negative controls, respectively. After that, 10 μL of media containing 10,000 T. cruzi trypomastigotes are added to each plate well and plates are placed back into incubators. After 6 day incubation, 10 μL of reagent solution (0.6 mM CPRG, 0.6% NP-40 in PBS) is added to plates and incubated at room temperature for 2 hours. Absorbance is then measured on SpectraMax Gemini fluorimeter to determine relative number of T. cruzi cells present in each plate well. The percentage inhibition of 50%, EC50, is calculated for each compound.

[4] = system: Trypanosoma brucei Lister 427 strain; experiment: Assay for proliferation of kinetoplastid parasite Trypanosoma brucei (Cell Titer Glo); settings: bloodstream form, 48 hours, read-out: T. brucei EC50
Source text: The proliferation is quantified by the addition of Cell Titer Glo (Promega®) a luminescent cell viability assay that measures the number of viable cells in culture based on the quantification of cellular ATP amount, which is an indicator of metabolically active cells. The following assay illustrates the invention without in any way limiting the scope of the invention. This parasite proliferation assay measures the increase in parasite growth using an assay that measures ATP activity, Cell Titer Glo®.
Trypanosoma brucei Lister 427 strain is grown in HMI-9 Trypanosome media for T. brucei bloodstream form. 30 μl of HMI-9 media is dispensed into 384 well assay plates. 200 nL of compounds of the invention (in DMSO), including anti-trypanosome controls (Pentamidine and suramin), are then transferred into the assay plates, as well as DMSO alone to serve as a negative control for inhibition. Then 25 μl of a suspension of T. brucei culture in HMI-9 media is dispensed into the assay plates. The final concentration of parasites in culture corresponds to 1.7% of 0.5 uM ATP activity with Cell Titer Glo® in HMI-9 media. The plates are placed in a 37° C. incubator for 48 hours in an atmospheric environment containing 5% CO2. 40 μl of Cell Titer Glo® is dispensed into the plates. The plates are then read for luminescence. The percentage inhibition of 50%, EC50, is calculated for each compound.

| Structure (SMILES) | EC50 [1] [µM] | EC50 [2] [µM] | EC50 [3] [µM] | EC50 [4] [µM] |
| --- | --- | --- | --- | --- |
| CC(C)(COC(=O)Nc1cnc2nc(-c3cc(NC(=O)c4ccco4)ccc3Cl)[nH]c2c1)NC(=O)OC(C)(C)C [Example 15, tert-butyl N-{1-[({2-[2-chloro-5-(furan-2-amido)phenyl]-1H-imidazo[4,5-b]pyridin-6-yl}carbamoyl)oxy]-2-methylpropan-2-yl}carbamate] | 8.7 | 5.1 | 1.85 | 0.64 |
| O=C(CCN1CCOCC1)Nc1cnc2nc(-c3cc(NC(=O)c4ccc(F)o4)ccc3Cl)[nH]c2c1 [Example 72, N-(4-chloro-3-{6-[3-(morpholin-4-yl)propanamido]-1H-imidazo[4,5-b]pyridin-2-yl}phenyl)-5-fluorofuran-2-carboxamide] | 34.1 | > 25 | > 20 | 5.36 |
| CC(C)(C)OC(=O)NCC1(C(=O)Nc2cnc3nc(-c4cc(NC(=O)c5ccco5)ccc4Cl)[nH]c3c2)CC1 [Example 63, tert-butyl N-{[1-({2-[2-chloro-5-(furan-2-amido)phenyl]-1H-imidazo[4,5-b]pyridin-6-yl}carbamoyl)cyclopropyl]methyl}carbamate] | 0.53 | 0.46 | 0.248 | 0.044 |
| COCC1(C(=O)Nc2cnc3nc(-c4cc(NC(=O)c5ccco5)ccc4Cl)[nH]c3c2)CC1 [Example 42, N-[4-chloro-3-(6-{[1-(methoxymethyl)cyclopropane]amido}-1H-imidazo[4,5-b]pyridin-2-yl)phenyl]furan-2-carboxamide] | 1.91 | 1.09 | 1.32 | 0.185 |
| CC1(C)CC(C(=O)Nc2cnc3nc(-c4cc(NC(=O)c5ccco5)ccc4Cl)[nH]c3c2)C1 [Example 56, N-(4-chloro-3-{6-[(3,3-dimethylcyclobutane)amido]-1H-imidazo[4,5-b]pyridin-2-yl}phenyl)furan-2-carboxamide] | 2.23 | 2.96 | 1.23 | 0.346 |
| O=C(Nc1ccc(Cl)c(-c2nc3ncc(NC(=O)C4CC(F)(F)C4)cc3[nH]2)c1)c1ccco1 [Example 57, N-(4-chloro-3-{6-[(3,3-difluorocyclobutane)amido]-1H-imidazo[4,5-b]pyridin-2-yl}phenyl)furan-2-carboxamide] | 12.8 | 8.2 | 7.4 | 0.5 |
| O=C(Nc1cccnc1)Nc1cnc2nc(-c3cc(NC(=O)c4ccco4)ccc3Cl)[nH]c2c1 [Example 21, N-[4-chloro-3-(6-{[(pyridin-3-yl)carbamoyl]amino}-1H-imidazo[4,5-b]pyridin-2-yl)phenyl]furan-2-carboxamide] | > 50 | 17.7 | > 20 | 1.59 |
| CC(C)OC(=O)Nc1cnc2nc(-c3cc(NC(=O)N4CCCC4)ccc3Cl)[nH]c2c1 [Example 54, propan-2-yl N-(2-{2-chloro-5-[(pyrrolidin-1-yl)carbonylamino]phenyl}-1H-imidazo[4,5-b]pyridin-6-yl)carbamate] | 1.86 | 0.59 | 1.39 | 0.068 |
| CC1(OC(=O)Nc2cnc3nc(-c4cc(NC(=O)c5ccco5)ccc4Cl)[nH]c3c2)CC1 [Example 49, 1-methylcyclopropyl N-{2-[2-chloro-5-(furan-2-amido)phenyl]-1H-imidazo[4,5-b]pyridin-6-yl}carbamate] | 0.49 | 0.48 | 0.44 | 0.081 |
| CC(C)OC(=O)Nc1cnc2nc(-c3cccc(NC(=O)c4ccc(F)o4)c3)[nH]c2c1 [Example 78, propan-2-yl N-{2-[3-(5-fluorofuran-2-amido)phenyl]-1H-imidazo[4,5-b]pyridin-6-yl}carbamate] | 1.39 | 4.7 | 1.44 | 0.2 |
| O=C(Nc1ccc(Cl)c(-c2nc3ncc(NC(=O)C4CC4)cc3[nH]2)c1)c1ccc(F)o1 [Example 65, N-(4-chloro-3-{6-cyclopropaneamido-1H-imidazo[4,5-b]pyridin-2-yl}phenyl)-5-fluorofuran-2-carboxamide] | 0.57 | 1.47 | 1.02 | 0.023 |
| O=C(CCCN1CCOCC1)Nc1cnc2nc(-c3cc(NC(=O)c4ccc(F)o4)ccc3Cl)[nH]c2c1 [Example 66, N-(4-chloro-3-{6-[4-(morpholin-4-yl)butanamido]-1H-imidazo[4,5-b]pyridin-2-yl}phenyl)-5-fluorofuran-2-carboxamide] | 39.2 | > 25 | > 20 | 2.3 |
| O=C(Nc1ccc(Cl)c(-c2nc3ncc(NC(=O)C4CC4(F)F)cc3[nH]2)c1)c1ccco1 (stereo not shown) [Example 44, N-(4-chloro-3-{6-[(2,2-difluorocyclopropane)amido]-1H-imidazo[4,5-b]pyridin-2-yl}phenyl)furan-2-carboxamide] | 5.3 | 2.38 | 3.9 | 0.282 |
| CC(C)OC(=O)Nc1cnc2nc(-c3cc(NC(=O)c4ccco4)ccc3Cl)[nH]c2c1 [Example 2, propan-2-yl N-{2-[2-chloro-5-(furan-2-amido)phenyl]-1H-imidazo[4,5-b]pyridin-6-yl}carbamate] | 0.315 | 0.19 | 0.142 | 0.039 |
| CC(C)OC(=O)Nc1cnc2nc(-c3cc(NC(=O)c4ccc(C#N)o4)ccc3Cl)[nH]c2c1 [Example 48, propan-2-yl N-{2-[2-chloro-5-(5-cyanofuran-2-amido)phenyl]-1H-imidazo[4,5-b]pyridin-6-yl}carbamate] | 0.56 | 0.62 | 0.141 | 0.223 |
| O=C(Nc1ccc(Cl)c(-c2nc3ncc(NC(=O)C4CC4)cc3[nH]2)c1)c1ccco1 [Example 45, N-(4-chloro-3-{6-cyclopropaneamido-1H-imidazo[4,5-b]pyridin-2-yl}phenyl)-furan-2-carboxamide] | 1.16 | 0.45 | 2.86 | 0.115 |
| O=C(C[C@@H]1CCNC1)Nc1cnc2nc(-c3cc(NC(=O)c4ccco4)ccc3Cl)[nH]c2c1 [Example 32, N-[4-chloro-3-(6-{2-[(3S)-pyrrolidin-3-yl]acetamido}-1H-imidazo[4,5-b]pyridin-2-yl)phenyl]furan-2-carboxamide] | > 50 | > 25 | > 20 | 7.8 |
| N#CC1(C(=O)Nc2cnc3nc(-c4cc(NC(=O)c5ccco5)ccc4Cl)[nH]c3c2)CC1 [Example 41, N-(4-chloro-3-{6-[(1-cyanocyclopropane)amido]-1H-imidazo[4,5-b]pyridin-2-yl}phenyl)-furan-2-carboxamide] | 1.45 | 0.68 | 0.82 | 0.08 |
| O=C(Nc1ccc(Cl)c(-c2nc3ncc(NC(=O)C4CCC4)cc3[nH]2)c1)c1ccco1 [Example 55, N-(4-chloro-3-{6-cyclobutaneamido-1H-imidazo[4,5-b]pyridin-2-yl}phenyl)furan-2-carboxamide] | 0.83 | 0.95 | 1.25 | 0.075 |
